pEC50, pIC50: −log10 of the molar value. Calls of active or inactive are those of the source. The rule behind the calls is not given here.
Key:
[1] = Volume of distribution at steady state in Sprague-Dawley rat plasma at 100 mg/kg, po measured after 0.083 to 24 hrs by HPLC analysis; type: ADME, organism-based; details: in vivo, time 0.083-24 hrs
[2] = biological target: T1, Indoleamine 2,3-dioxygenase 1 (Homo sapiens, UniProt P14902); assay: Inhibition of IDO1 in IFN-gamma induced overexpressing human HeLa cells; type: cell-based
[3] = biological target: Dual specificity tyrosine-phosphorylation-regulated kinase 1B (Homo sapiens) (UniProt Q9Y463); assay: Inhibition of human wildtype full length DYRK1B expressed in bacterial system at 10 uM relative to control
[4] = Toxicity in MPTP induced C57BL/6J mouse neurodegenerative model assessed as no change in body weight treated with MPTP for 7 days followed by compound administration at 10 to 100 mg/kg, po measured upto 32 days; type: organism-based; details: in vivo, 768 h, dose 10-100 mg/kg, time < 32 day
Mus musculus [5] = assay: Neuroprotective activity in MPTP induced neurodegenerative C57BL/6J mouse model blood assessed as increase in tryptophan metabolite KYNA treated with MPTP for 7 days followed by compound administration at 30 mg/kg, po by LC-MS/MS analysis; type: functional, organism-based
Mus musculus [6] = assay: Neuroprotective activity in MPTP induced neurodegenerative C57BL/6J mouse model assessed as decrease in tryptophan metabolite QUIN in mouse striatum treated with MPTP for 7 days followed by compound administration at 30 mg/kg, po by LC-MS/MS analysis; type: functional, organism-based
Mus musculus [7] = assay: Neuroprotective activity in MPTP induced neurodegenerative C57BL/6J mouse model assessed as decrease in tryptophan metabolite NFK in mouse striatum treated with MPTP for 7 days followed by compound administration at 30 mg/kg, po by LC-MS/MS analysis; type: functional, organism-based
Mus musculus [8] = assay: Neuroprotective activity in MPTP induced C57BL/6J mouse neurodegenerative model treated with MPTP for 7 days followed by compound administration at 10 to 30 mg/kg, po measured on day 6 to 12 upto 180 secs at 25 rpm by rota-rod test; type: functional, organism-based; details: dose 10-30 mg/kg, time 6-12 day
BCRP [9] = assay: Permeability in human Caco-2 expressing BCRP cells across apical to basolateral side by measuring ratio of the final amount of the compound in donor and receiver chambers to the initial amount of the compound in the donor chamber in presence of novobiocin relative to control; type: ADME, cell-based; details: Caco-2, with novobiocin (concentration not stated)
[10] = Unbound fraction in mouse plasma by LC-MS/MS analysis relative to control; type: ADME
[11] = Toxicity in MPTP induced C57BL/6J mouse neurodegenerative model assessed as no change in kidney weight treated with MPTP for 7 days followed by compound administration at 10 to 30 mg/kg, po measured upto 32 days; type: organism-based; details: in vivo, 768 h, dose 10-30 mg/kg, time < 32 day
[12] = Half life in Sprague-Dawley rat plasma at 100 mg/kg, iv by HPLC analysis; type: ADME, organism-based
[13] = Oral bioavailability in Sprague-Dawley rat plasma by measuring dose-corrected area under the curve (AUC) oral divided by AUC intravenous at 100 mg/kg measured after 0.083 to 24 hrs by HPLC analysis relative to control; type: ADME, organism-based; details: time 0.083-24 hrs
[14] = Toxicity in MPTP induced C57BL/6J mouse neurodegenerative model assessed as no change in liver weight treated with MPTP for 7 days followed by compound administration at 10 to 30 mg/kg, po measured upto 32 days; type: organism-based; details: in vivo, 768 h, dose 10-30 mg/kg, time < 32 day
[15] = Clearance in Sprague-Dawley rat plasma at 100 mg/kg, po measured after 0.083 to 24 hrs by HPLC analysis; type: ADME, organism-based; details: time 0.083-24 hrs
[16] = Ratio of drug concentration in unbound brain to unbound plasma in Kunming mouse assessed as blood brain barrier permeability measured at 0.5 to 12 hrs by HPLC analysis; details: time 0.5-12 hrs
Mus musculus [17] = assay: Neuroprotective activity in MPTP induced C57BL/6J mouse neurodegenerative model assessed as increase in tyrosine hydroxylase expression in positive neuron cells in brain SNpc treated with MPTP for 7 days followed by compound administration at 30 mg/kg, po by IHC staining method; type: functional, organism-based; details: Substantia nigra pars compacta
[18] = Volume of distribution at steady state in Sprague-Dawley rat plasma at 100 mg/kg, iv measured after 0.083 to 24 hrs by HPLC analysis; type: ADME, organism-based; details: time 0.083-24 hrs, read-out: Vdss
[19] = biological target: T1, Indoleamine 2,3-dioxygenase 1; assay: Inhibition of human IDO1 (12 to 403 aa) expressed in Escherichia coli Transetta (DE3) by nanodrop 2000c spectrophotometric analysis
[20] = Unbound fraction in mouse brain by LC-MS/MS analysis relative to control; type: ADME, tissue-based
BCRP [21] = assay: Efflux ratio of apparent permeability across basolateral to apical side to apical to basolateral side in human Caco-2 expressing BCRP cells in presence of novobiocin; type: ADME, cell-based; details: Caco-2, with novobiocin (concentration not stated)
Mus musculus [22] = assay: Neuroprotective activity in MPTP induced C57BL/6J mouse neurodegenerative model assessed as decrease in Iba-1 expression in positive neuron cells in brain striatum treated with MPTP for 7 days followed by compound administration at 30 mg/kg, po by IHC staining method; type: functional, organism-based
Mus musculus [23] = assay: Neuroprotective activity in MPTP induced neurodegenerative C57BL/6J mouse model assessed as decrease in tryptophan metabolite NFK in mouse substantia nigra treated with MPTP for 7 days followed by compound administration at 30 mg/kg, po by LC-MS/MS analysis; type: functional, organism-based
[24] = biological target: Receptor-type tyrosine-protein kinase FLT3 (Homo sapiens) (UniProt P36888); assay: Inhibition of human wildtype partial length FLT3 expressed in bacterial system at 10 uM relative to control
[25] = Toxicity in MPTP induced C57BL/6J mouse neurodegenerative model assessed as no change in lung weight treated with MPTP for 7 days followed by compound administration at 10 to 30 mg/kg, po measured upto 32 days; type: organism-based; details: in vivo, 768 h, dose 10-30 mg/kg, time < 32 day
BCRP [26] = assay: Apparent permeability in human Caco-2 expressing BCRP cells across apical to basolateral side in presence of novobiocin; type: ADME, cell-based; details: Caco-2, with novobiocin (concentration not stated), read-out: permeability
BCRP [27] = assay: Apparent permeability in human Caco-2 expressing BCRP cells across basolateral to apical side; type: ADME, cell-based; details: read-out: permeability
[28] = Clearance in Sprague-Dawley rat plasma at 100 mg/kg, iv measured after 0.083 to 24 hrs by HPLC analysis; type: ADME, organism-based; details: time 0.083-24 hrs
Mus musculus [29] = assay: In vivo antiinflammatory activity in MPTP induced C57BL/6J mouse neurodegenerative model assessed as decrease in IL-1 beta expression treated with MPTP for 7 days followed by compound administration at 30 mg/kg, po by Western blotting analysis; type: functional, organism-based
Mus musculus [30] = assay: Neuroprotective activity in MPTP induced C57BL/6J mouse neurodegenerative model assessed as no change in IDO1 expression in brain striatum treated with MPTP for 7 days followed by compound administration at 30 mg/kg, po by Western blotting analysis; type: functional, organism-based
MDR1 = assay: Permeability in MDCKII expressing MDR1 cells across apical to basolateral side by measuring ratio of the final amount of the compound in donor and receiver chambers to the initial amount of the compound in the donor chamber relative to control; type: ADME, cell-based, Canis lupus familiaris, MDCK-II; details: dog, MDCK-MDR1

T1 sequence (P14902 whole entry): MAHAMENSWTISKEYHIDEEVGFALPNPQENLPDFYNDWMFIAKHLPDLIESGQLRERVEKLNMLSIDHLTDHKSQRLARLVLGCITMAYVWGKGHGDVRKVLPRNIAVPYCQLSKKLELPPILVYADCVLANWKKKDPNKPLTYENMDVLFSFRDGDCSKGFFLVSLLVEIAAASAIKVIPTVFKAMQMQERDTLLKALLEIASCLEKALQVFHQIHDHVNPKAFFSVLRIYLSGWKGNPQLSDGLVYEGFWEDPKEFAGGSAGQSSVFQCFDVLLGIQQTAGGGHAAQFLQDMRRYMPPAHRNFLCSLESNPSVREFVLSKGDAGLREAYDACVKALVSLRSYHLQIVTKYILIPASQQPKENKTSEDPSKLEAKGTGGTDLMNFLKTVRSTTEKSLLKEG
Sequence of Receptor-type tyrosine-protein kinase FLT3 (Homo sapiens) (P36888 whole entry): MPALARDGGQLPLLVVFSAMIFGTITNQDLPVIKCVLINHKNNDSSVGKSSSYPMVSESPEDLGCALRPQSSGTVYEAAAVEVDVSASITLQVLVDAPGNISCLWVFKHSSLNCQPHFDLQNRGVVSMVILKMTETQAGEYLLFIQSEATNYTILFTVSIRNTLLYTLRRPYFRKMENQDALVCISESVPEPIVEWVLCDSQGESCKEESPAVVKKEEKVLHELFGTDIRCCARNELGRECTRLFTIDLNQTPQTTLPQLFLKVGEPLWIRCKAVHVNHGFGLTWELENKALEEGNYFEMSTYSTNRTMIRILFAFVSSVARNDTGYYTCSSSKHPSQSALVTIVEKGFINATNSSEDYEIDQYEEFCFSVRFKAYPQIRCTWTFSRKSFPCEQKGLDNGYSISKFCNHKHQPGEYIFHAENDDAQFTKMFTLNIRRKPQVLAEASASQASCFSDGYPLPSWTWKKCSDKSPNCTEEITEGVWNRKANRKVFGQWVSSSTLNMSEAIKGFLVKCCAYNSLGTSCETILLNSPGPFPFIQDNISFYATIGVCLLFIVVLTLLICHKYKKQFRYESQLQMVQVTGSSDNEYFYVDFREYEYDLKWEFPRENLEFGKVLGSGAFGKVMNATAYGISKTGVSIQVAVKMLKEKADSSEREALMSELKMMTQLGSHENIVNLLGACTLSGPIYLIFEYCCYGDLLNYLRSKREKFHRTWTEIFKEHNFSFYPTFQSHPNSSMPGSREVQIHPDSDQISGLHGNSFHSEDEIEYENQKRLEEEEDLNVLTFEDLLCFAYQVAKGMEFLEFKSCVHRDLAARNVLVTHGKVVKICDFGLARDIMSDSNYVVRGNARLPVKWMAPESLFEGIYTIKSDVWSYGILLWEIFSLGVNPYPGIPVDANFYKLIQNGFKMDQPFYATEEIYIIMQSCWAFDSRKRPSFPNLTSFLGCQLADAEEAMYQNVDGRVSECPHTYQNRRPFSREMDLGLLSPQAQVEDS
Sequence of Dual specificity tyrosine-phosphorylation-regulated kinase 1B (Homo sapiens) (Q9Y463 whole entry, looked up): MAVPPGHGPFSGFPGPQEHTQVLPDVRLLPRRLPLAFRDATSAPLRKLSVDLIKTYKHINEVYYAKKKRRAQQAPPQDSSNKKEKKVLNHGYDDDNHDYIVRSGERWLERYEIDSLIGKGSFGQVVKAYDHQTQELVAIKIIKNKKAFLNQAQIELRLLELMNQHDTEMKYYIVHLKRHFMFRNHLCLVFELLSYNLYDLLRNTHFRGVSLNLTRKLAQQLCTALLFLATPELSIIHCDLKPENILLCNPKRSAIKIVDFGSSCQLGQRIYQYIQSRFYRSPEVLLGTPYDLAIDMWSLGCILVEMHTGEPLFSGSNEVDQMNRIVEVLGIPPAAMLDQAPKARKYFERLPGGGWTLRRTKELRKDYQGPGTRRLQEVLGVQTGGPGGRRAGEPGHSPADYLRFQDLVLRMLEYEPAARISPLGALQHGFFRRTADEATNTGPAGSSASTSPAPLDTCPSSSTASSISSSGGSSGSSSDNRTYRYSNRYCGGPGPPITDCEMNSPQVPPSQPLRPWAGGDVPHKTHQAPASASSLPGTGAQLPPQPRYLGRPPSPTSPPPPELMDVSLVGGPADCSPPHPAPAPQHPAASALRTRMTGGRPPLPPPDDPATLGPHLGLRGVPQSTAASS

With O[C@@H]1CCCC[C@H]1CNc1cc(Br)cc2[nH]ncc12 the Vdss [1] was 25.45 L/kg, the pEC50 [2] was 5.26 and the inhibition [3] was greater than 90%. The Activity [4] was “Non-Toxic”, the Activity (Mus musculus [5]) was “Active” and the Activity (Mus musculus [6]) was “Active”. For the same compound, the Activity (Mus musculus [7]) was “Active”, the Activity (Mus musculus [8]) was “Active” and the recovery (BCRP [9]) was 43.8%. The Fu [10] was 0.73%, the Activity [11] was “Non-Toxic” and the half-life [12] was 10.1 h. The bioavailability [13] was 73.2%, the Activity [14] was “Non-Toxic” and the CL/F [15] was 69.7 mL/min/kg. For the same compound, the “K(p,uu,brain)” value [16] was 0.28%, the Activity (Mus musculus [17]) was “Active” and the Vd [18] was 28.1 L/kg. For the same compound, the pIC50 [19] was 6.19, the Fu [20] was 0.25% and the efflux ratio (BCRP [21]) was 0.51. For the same compound, the Activity (Mus musculus [22]) was “Active”, the Activity (Mus musculus [23]) was “Active” and the inhibition [24] was greater than 90%. The Activity [25] was “Non-Toxic”, the Papp A→B (BCRP [26]) was 19.4 ×10⁻⁶ cm/s and the Papp B→A (BCRP [27]) was 10.4 ×10⁻⁶ cm/s. For the same compound, the clearance [28] was 40.5 mL/min/kg, the Activity (Mus musculus [29]) was “Active” and the Activity (Mus musculus [30]) was “Active”. It also gave a recovery (MDR1) of 55.1%.

From ChEMBL document CHEMBL5214905 (J Med Chem, 2021)
